Results: ChEMBL document CHEMBL3885861, “Open TG-GATES”

Species on record: Rattus norvegicus
Assay: Open TG-GATES - Regimen: Daily Repeat
Assay type: toxicity, organism-based, Sprague-Dawley
Set-up: regimen Daily Repeat, gender Male, age 6 weeks
Details: in vivo, po, 0 mg/kg, route gavage, dose level Control; for APTT / Bas / Eos / Fbg / Hb / Ht / Lym / MCH / MCHC / MCV / Mono / Neu / Plat / RBC / Ret / WBC: tissue Blood; for KIDNEY_L / KIDNEY_R / KIDNEY_TOTAL: tissue Kidney; for ALP / ALT / AST / BUN / CRE / DBIL / GLC / IP / K / LDH / Na / PL / RALB / TBIL / TC / TG / TP / gamma-GTP: tissue Plasma

Structure (SMILES): CN(C)CCC=C1c2ccccc2COc2ccccc21 [DOXEPIN]
- TERMINAL_BW (72 h, time 3 day): 226.4 g
- APTT (72 h, time 3 day): 17.1 s
- Bas (72 h, time 3 day): 0%
- Eos (72 h, time 3 day): 1%
- Fbg (72 h, time 3 day): 281.6 mg/dL
- Hb (72 h, time 3 day): 13.4 g/dL
- Ht (72 h, time 3 day): 38.6%
- Lym (72 h, time 3 day): 78.6%
- MCH (72 h, time 3 day): 21.4 pg
- MCHC (72 h, time 3 day): 34.7%
- MCV (72 h, time 3 day): 61.7 fL
- Mono (72 h, time 3 day): 2.8%
- Neu (72 h, time 3 day): 17%
- Plat (72 h, time 3 day): 122.6 x10_4/uL
- RBC (72 h, time 3 day): 625.6 x10_4/ul
- Ret (72 h, time 3 day): 7.8%
- WBC (72 h, time 3 day): 81.7 x10_2/uL
- KIDNEY_L (72 h, time 3 day): 1 g
- KIDNEY_R (72 h, time 3 day): 1 g
- KIDNEY_TOTAL (72 h, time 3 day): 2 g
- ALP (72 h, time 3 day): 1760.6 IU/L
- ALT (72 h, time 3 day): 46 IU/L
- AST (72 h, time 3 day): 71.2 IU/L
- BUN (72 h, time 3 day): 15.6 mg/dL
- CRE (72 h, time 3 day): 0.2 mg/dL
- DBIL (72 h, time 3 day): 0.018 mg/dL
- GLC (72 h, time 3 day): 192 mg/dL
- IP (72 h, time 3 day): 8 mg/dL
- K (72 h, time 3 day): 4.3 meq/L
- LDH (72 h, time 3 day): 71.8 IU/L
- Na (72 h, time 3 day): 140.8 meq/L
- PL (72 h, time 3 day): 143 mg/dL
- RALB (72 h, time 3 day): 2.7 g/dL
- TBIL (72 h, time 3 day): 0.036 mg/dL
- TC (72 h, time 3 day): 79.6 mg/dL
- TG (72 h, time 3 day): 91.2 mg/dL
- TP (72 h, time 3 day): 5.7 g/dL
- gamma-GTP (72 h, time 3 day): 1.4 IU/L
- TERMINAL_BW ([…], time 7 day): 255.5 g
- TERMINAL_BW ([…], time 14 day): 310.4 g
- TERMINAL_BW ([…], time 28 day): 419.8 g
- APTT ([…], time 7 day): 15.9 s
- Bas ([…], time 7 day): 0.2%
- Eos ([…], time 7 day): 1%
- Fbg ([…], time 7 day): 293.2 mg/dL
- Hb ([…], time 7 day): 13.5 g/dL
- Ht ([…], time 7 day): 38.5%
- Lym ([…], time 7 day): 75.4%
- MCH ([…], time 7 day): 21.1 pg
- MCHC ([…], time 7 day): 35.1%
- MCV ([…], time 7 day): 60 fL
- Mono ([…], time 7 day): 3.6%
- Neu ([…], time 7 day): 19%
- Plat ([…], time 7 day): 116.5 x10_4/uL
- RBC ([…], time 7 day): 641.8 x10_4/ul
- Ret ([…], time 7 day): 5.2%
- WBC ([…], time 7 day): 81 x10_2/uL
- APTT ([…], time 14 day): 16.8 s
- Bas ([…], time 14 day): 0%
- Eos ([…], time 14 day): 0.8%
- Fbg ([…], time 14 day): 280.2 mg/dL
- Hb ([…], time 14 day): 14 g/dL
- Ht ([…], time 14 day): 40.1%
- Lym ([…], time 14 day): 77.2%
- MCH ([…], time 14 day): 21.3 pg
- MCHC ([…], time 14 day): 34.8%
- MCV ([…], time 14 day): 61.1 fL
- Mono ([…], time 14 day): 2.8%
- Neu ([…], time 14 day): 18.4%
- Plat ([…], time 14 day): 116.1 x10_4/uL
- RBC ([…], time 14 day): 657.4 x10_4/ul
- Ret ([…], time 14 day): 4.8%
- WBC ([…], time 14 day): 103.9 x10_2/uL
- APTT ([…], time 28 day): 16.6 s
- Bas ([…], time 28 day): 0%
- Eos ([…], time 28 day): 1.2%
- Fbg ([…], time 28 day): 278.6 mg/dL
- Hb ([…], time 28 day): 14.7 g/dL
- Ht ([…], time 28 day): 41.9%
- Lym ([…], time 28 day): 74.6%
- MCH ([…], time 28 day): 20.2 pg
- MCHC ([…], time 28 day): 35.3%
- MCV ([…], time 28 day): 57.3 fL
- Mono ([…], time 28 day): 3%
- Neu ([…], time 28 day): 20.8%
- Plat ([…], time 28 day): 102.4 x10_4/uL
- RBC ([…], time 28 day): 731.6 x10_4/ul
- Ret ([…], time 28 day): 3%
- WBC ([…], time 28 day): 78.6 x10_2/uL
- KIDNEY_L ([…], time 7 day): 1.1 g
- KIDNEY_R ([…], time 7 day): 1.1 g
- KIDNEY_TOTAL ([…], time 7 day): 2.2 g
- KIDNEY_L ([…], time 14 day): 1.2 g
- KIDNEY_R ([…], time 14 day): 1.2 g
- KIDNEY_TOTAL ([…], time 14 day): 2.4 g
- KIDNEY_L ([…], time 28 day): 1.4 g
- KIDNEY_R ([…], time 28 day): 1.4 g
- KIDNEY_TOTAL ([…], time 28 day): 2.7 g
- ALP ([…], time 7 day): 1795.6 IU/L
- ALT ([…], time 7 day): 46 IU/L
- AST ([…], time 7 day): 74.4 IU/L
- BUN ([…], time 7 day): 18.8 mg/dL
- CRE ([…], time 7 day): 0.2 mg/dL
- DBIL ([…], time 7 day): 0.018 mg/dL
- GLC ([…], time 7 day): 186.4 mg/dL
- IP ([…], time 7 day): 7 mg/dL
- K ([…], time 7 day): 4.2 meq/L
- LDH ([…], time 7 day): 67.2 IU/L
- Na ([…], time 7 day): 141.4 meq/L
- PL ([…], time 7 day): 154 mg/dL
- RALB ([…], time 7 day): 2.7 g/dL
- TBIL ([…], time 7 day): 0.03 mg/dL
- TC ([…], time 7 day): 85 mg/dL
- TG ([…], time 7 day): 112.2 mg/dL
- TP ([…], time 7 day): 5.8 g/dL
- gamma-GTP ([…], time 7 day): 1.6 IU/L
- ALP ([…], time 14 day): 1467 IU/L
- ALT ([…], time 14 day): 42.8 IU/L
- AST ([…], time 14 day): 67.4 IU/L
- BUN ([…], time 14 day): 18 mg/dL
- CRE ([…], time 14 day): 0.2 mg/dL
- DBIL ([…], time 14 day): 0.014 mg/dL
- GLC ([…], time 14 day): 191.6 mg/dL
- IP ([…], time 14 day): 7 mg/dL
- K ([…], time 14 day): 4.1 meq/L
- LDH ([…], time 14 day): 65.6 IU/L
- Na ([…], time 14 day): 143.4 meq/L
- PL ([…], time 14 day): 157 mg/dL
- RALB ([…], time 14 day): 2.7 g/dL
- TBIL ([…], time 14 day): 0.024 mg/dL
- TC ([…], time 14 day): 77.4 mg/dL
- TG ([…], time 14 day): 172.8 mg/dL
- TP ([…], time 14 day): 6 g/dL
- gamma-GTP ([…], time 14 day): 1 IU/L
- ALP ([…], time 28 day): 1293.8 IU/L
- ALT ([…], time 28 day): 43.6 IU/L
- AST ([…], time 28 day): 65.4 IU/L
- BUN ([…], time 28 day): 17.2 mg/dL
- CRE ([…], time 28 day): 0.2 mg/dL
- DBIL ([…], time 28 day): 0.024 mg/dL
- GLC ([…], time 28 day): 180.8 mg/dL
- IP ([…], time 28 day): 6.3 mg/dL
- K ([…], time 28 day): 3.9 meq/L
- LDH ([…], time 28 day): 59.6 IU/L
- Na ([…], time 28 day): 143.4 meq/L
- PL ([…], time 28 day): 166 mg/dL
- RALB ([…], time 28 day): 2.9 g/dL
- TBIL ([…], time 28 day): 0.034 mg/dL
- TC ([…], time 28 day): 80.2 mg/dL
- TG ([…], time 28 day): 212.2 mg/dL
- TP ([…], time 28 day): 6.4 g/dL
